{"source": "patent US8940310B2", "about": "“Methods of treatment using TLR7 and/or TLR9 inhibitors” (Dynavax Technologies Corporation, priority 2010, dated 2015)", "key": {"TLR7 and TLR9 [1]": {"system": "TLR7 and TLR9", "test": "Type I IFN-regulated genes in spleens of lupus-prone mice (Taqman)", "type": "in vivo, mouse", "details": "(NZBxNZW)F1 and TLR7.Tg.6, IRS 100 μg s.c. every 3 days for 10 days", "experimental": "(A) (NZBxNZW)F1 mice were treated as described in FIG. 16 but when mice received IRS, different doses of GC were used (in mg per mouse here) (B) (NZBxNZW)F1 and (C) TLR7.Tg.6 mice were left untreated or treated with IRS (100 μg/mice s.c) every 3 days for 10 days and spleens were harvested 18 hr after the last IRS injection. RNA was prepared from the spleens of the animals and the levels of type I IFN-regulated genes were measured by quantitative analysis (Taqman). Averages±standard error of the mean for n=6-10 mice per group.\nPCR reactions were performed as described previously (Barrat et al., 2005). In brief, RNA was extracted from collagenase D-treated splenocyte suspensions with Qiagen RNA and cDNA was generated with SuperScript First-Strand Synthesis System (Invitrogen). ECT was threshold cycle (CT) values for each gene were normalized to the housekeeping genes ubiquitin or β-actin using the formula Eq. 1.8(HSKGENE) (100,000), where HSK is the mean CT of triplicate housekeeping gene runs, GENE is the mean CT of duplicate runs of the gene of interest, and 100,000 is arbitrarily chosen as a factor to bring all values above 0."}, "TLR7 and TLR9 [2]": {"system": "TLR7 and TLR9", "test": "Tape stripping skin lesions in lupus prone (NZBxNZW)F1 mice", "type": "in vivo", "parameters": "key to Dermal inflammation: graded on a scale of 1 to 3", "details": "for Dermal inflammation / Epidermis thickness / Intraepithelial inflammation / Panniculum inflammation / Ulceration: histological score", "experimental": "SEQ ID NO:42 (IRS) was used starting the day of the tape stripping during the entire course of the experiments (FIGS. 29A,D,E) or starting at 4 days post injury when the disease is already established (FIGS. 30A,D,E). In both cases SEQ ID NO:42 (IRS) (100 μg; s. c.) was administered twice a week. Also described is the timing of PDC depletion experiments described in FIGS. 29A,F,G. Depleting antibody to PDC anti-120G8 (250 μg; i.p.) were given at day −2 and day 0, eight hours before tape stripping and then given twice a week for the entire duration of the experiment. Experiments were stopped in between 15-23 days after initial tape stripping depending on the progression of the lesions in the untreated groups.\nC57BL/6 and 129 mice were purchased from Charles River Laboratories. (NZBxNZW)F1 female mice were purchased from Jackson Laboratories and used at 18-22 weeks of age. MyD88/KO and TLR9/KO mouse colonies were maintained at Simonsen Laboratories and used with age matched C57BL/6 wild type controls at 8-12 weeks of age. Tape stripping was performed after shaving the dorsal area (3×3 cm) using 10 strokes with duct tape. IRS was administered just before tape stripping SC at a distant site. Alternatively, in (NZBxNZW)F1 mice, IRS was administered long term. In certain experiments PDC and neutrophils were depleted with 250 μg of antibody given IP at day −2 and day 0, eight hours before tape stripping. Anti-120G8 (Imgenex) was used for depletion of PDC (Asselin-Paturel et al., 2003), and anti-GR1-LY6G (clone 1A8; Biolegend) was used for depletion of neutrophils (Daley et al., 2008). […] In experiments where PDC were depleted, long term 120G8 depleting antibody was administered. Experiments in (NZBxNZW)F1 were terminated between 15-23 days after initial tape stripping, depending on the progression of the lesions in the untreated groups in each experiment. Percentage of area with open lesions in (NZBxNZW)F1 and normal mice was evaluated with Nikon software NIS-elements.\nThe biopsy specimens were fixed in formalin and embedded in paraffin. Sections were stained with hematoxylin-eosin. Multiple skin sections of 12-30 mice per group were evaluated in a blinded fashion. The following histological features were assessed and graded on a scale of 1 to 3: i) epidermis thickness ii) degree of ulceration iii) intraepithelial inflammation, iv) dermal inflammation, and v) panniculum inflammation. Histological grading was assigned as follows: 0, normal skin architecture, few dermal leukocytes and regular adnexa; 1, mild inflammation, slight epidermal hyperplasia and signs of dermal fibroblast proliferation; 2, moderate inflammation, noticeable epidermal hyperplasia (two- to four-fold increase in epithelial thickness) with hyperkeratosis, significant leukocyte/neutrophil-granulocyte dermal infiltrate with few macrophages, moderate fibrosclerosis of the dermis, reduction in the number of adnexa, slight degenerative changes of the hypodermic adipose tissue; 3, severe inflammation, marked epidermal hyperplasia (>four-fold increase in epithelial thickness) with hyperkeratosis, formation of keratin-filled craters and cysts, diffuse discontinuity of the epidermal layer (ulceration), extensive dermal infiltrate with abundant neutrophils and macrophages, pronounced dermal fibrosclerosis, vanishing of adnexa and evident degenerative changes of the hypodermic adipose tissue. The different parameters were scored separately and summed to obtained a total disease score (Table 22-1). Statistical significance among groups was calculated with a Mann-Whitney U-test."}}, "note": "“Also recorded” adds a separate entry of the source."}
{"substance": "5′-TGCTCCTGGAGGGGTTGT-3′ (DNA, backbone not given here) [SEQ ID NO:42]", "values": [{"measurement": "expression of IFN-regulated genes", "setting": "TLR7 and TLR9 [1]", "result": "reduced the expression of IFN-regulated genes but not TNF-α"}, {"measurement": "induction of IFN-regulated and pro-inflammatory genes", "setting": "TLR7 and TLR9 [2]; (NZBxNZW)F1, single injection prior to tape stripping, 24 hr", "result": "efficiently inhibited this gene induction; also recorded: can be inhibited"}, {"measurement": "Total Disease Score", "setting": "TLR7 and TLR9 [2]; IRS (pre-injury)", "result": "3.2 ± 0.5"}, {"measurement": "Dermal inflammation", "setting": "TLR7 and TLR9 [2]; IRS (pre-injury)", "result": "1.3 ± 0.2"}, {"measurement": "Epidermis thickness", "setting": "TLR7 and TLR9 [2]; IRS (pre-injury)", "result": "0.7 ± 0.2"}, {"measurement": "Intraepithelial inflammation", "setting": "TLR7 and TLR9 [2]; IRS (pre-injury)", "result": "0.2 ± 0.2"}, {"measurement": "Panniculum inflammation", "setting": "TLR7 and TLR9 [2]; IRS (pre-injury)", "result": "0.8 ± 0.1"}, {"measurement": "Ulceration", "setting": "TLR7 and TLR9 [2]; IRS (pre-injury)", "result": "0.0 ± 0.0"}, {"measurement": "Total Disease Score", "setting": "TLR7 and TLR9 [2]; IRS (therapeutic)", "result": "3.5 ± 0.4"}, {"measurement": "Dermal inflammation", "setting": "TLR7 and TLR9 [2]; IRS (therapeutic)", "result": "1.2 ± 0.1"}, {"measurement": "Epidermis thickness", "setting": "TLR7 and TLR9 [2]; IRS (therapeutic)", "result": "1.0 ± 0.2"}, {"measurement": "Intraepithelial inflammation", "setting": "TLR7 and TLR9 [2]; IRS (therapeutic)", "result": "0.2 ± 0.2"}, {"measurement": "Panniculum inflammation", "setting": "TLR7 and TLR9 [2]; IRS (therapeutic)", "result": "1.0 ± 0.0"}, {"measurement": "Ulceration", "setting": "TLR7 and TLR9 [2]; IRS (therapeutic)", "result": "0.2 ± 0.1"}, {"measurement": "lesions, share of the stripped area", "setting": "TLR7 and TLR9 [2]; IRS before skin injury and for the duration, day 15-23", "result": "less than 15%"}, {"measurement": "surface still covered by open lesions", "setting": "TLR7 and TLR9 [2]; IRS beginning at day 4, day 15-23", "result": 10, "unit": "%"}, {"measurement": "CLE-like phenotype / healing of established lesions", "setting": "TLR7 and TLR9 [2]; therapeutic treatment from day 4", "result": "accelerated healing; also recorded: significantly ameliorated CLE-like phenotype"}, {"measurement": "disease onset (skin appearance, histology, gene signatures)", "setting": "TLR7 and TLR9 [2]; treatment from the day of tape stripping", "result": "able to prevent disease onset"}]}
